Laboratory results: the supplement of paper PMC10627819

Tests used:
S. aureus DSM 20231 [1] = assay: fitness (endpoint OD595 vs no drug) (fraction); higher = more growth
Method in brief: (§1)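 Growth medium was TSB, LB Lennox or CY, and plates were kept at 37 °C. Inoculation was at OD595 0.01 in 384-well plates, at 30 µl per well or 55 µl for S. pneumoniae. OD595 was monitored every 30 min for 14 h and background-subtracted using the first reading. Fitness is the optical density on entering stationary phase divided by the robust mean of no-drug controls, with values capped at 1.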

B. subtilis 168 [2] = assay: as above
Method in brief: as §1

S. pneumoniae D39V [3] = assay: as above
Method in brief: as §1

S. aureus DSM 20231 [4] = assay: Bliss interaction score (quartile over a dose matrix) (fitness difference); higher = more antagonism (negative = synergy)
Method in brief: (§2)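 At entry into stationary phase, OD595 was recorded and divided by the robust mean of the no-drug wells on that plate, with any value above 1 set to 1. This gives the fitness measure used throughout. Single-drug fitness was inferred from combination data, and the Bliss score, observed minus product-expected fitness, is shown as quartiles across technical, biological and donor/recipient replicates.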

B. subtilis 168 [5] = assay: as above
Method in brief: as §2

S. aureus Newman = assay: as above
Method in brief: as §2

S. pneumoniae D39V [6] = assay: as above
Method in brief: as §2
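For Bliss interaction score (quartile over a dose matrix) in this document: first quartile when negative (synergy) and third quartile when positive (antagonism).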

COc1cccc2c1C(=O)c1c(O)c3c(c(O)c1C2=O)C[C@@](O)(C(=O)CO)C[C@@H]3O[C@H]1C[C@H](N)[C@H](O)[C@H](C)O1 [Doxorubicin] + CCC[C@@H]1C[C@@H](C(=O)N[C@@H]([C@H]2O[C@H](SC)[C@H](O)[C@@H](O)[C@H]2O)[C@@H](C)O)N(C)C1 [Lincomycin]
fitness
Conditions | partner 0.1 µg/mL | partner 0.2 µg/mL | partner 0.215 µg/mL | partner 0.4 µg/mL | partner 0.43 µg/mL | partner 0.8 µg/mL | partner 0.86 µg/mL
B. subtilis 168 [2], first compound 0.625 µg/mL | 0.903 | 0.882 | – | 0.914 | – | – | –
B. subtilis 168 [2], first compound 1.25 µg/mL | 0.878 | 0.857 | – | 0.88 | – | – | –
B. subtilis 168 [2], first compound 2.5 µg/mL | 0.726 | 0.668 | – | 0.65 | – | – | –
S. aureus DSM 20231 [1], first compound 0.625 µg/mL | 0.816 | 0.757 | – | – | – | – | –
S. aureus DSM 20231 [1], first compound 1.25 µg/mL | 0.853 | 0.835 | – | – | – | – | –
S. aureus DSM 20231 [1], first compound 2.5 µg/mL | 0.875 | 0.73 | – | – | – | – | –
S. pneumoniae D39V [3], first compound 0.25 µg/mL | – | 0.57 | 0.75 | 0.337 | 0.626 | 0.0441 | 0.427
S. pneumoniae D39V [3], first compound 0.5 µg/mL | – | 0.558 | 0.744 | 0.325 | 0.67 | 0.0345 | 0.372
S. pneumoniae D39V [3], first compound 1 µg/mL | – | 0.465 | 0.792 | 0.278 | 0.664 | 0.0189 | 0.307

fitness, B. subtilis 168 [2], one replicate
Conditions | first compound 0.625 µg/mL | first compound 1.25 µg/mL | first compound 2.5 µg/mL
partner 0.8 µg/mL | 0.959 | 0.831 | 0.638
partner 1.6 µg/mL | 0.914 | 0.89 | 0.684

Conditions | Bliss interaction score
B. subtilis 168 [5] | 0.0938
S. aureus DSM 20231 [4] | 0.167
S. aureus Newman | 0.164
S. pneumoniae D39V [6] | -0.0622

C[C@@H]1O[C@@H]1P(=O)(O)O [Fosfomycin] + CC(=O)NC[C@H]1CN(c2ccc(N3CCOCC3)c(F)c2)C(=O)O1 [Linezolid]
Conditions | fitness
B. subtilis 168 [2], first compound 1.562 µg/mL, partner 0.125 µg/mL | 0.507
B. subtilis 168 [2], first compound 3.124 µg/mL, partner 0.125 µg/mL | 0.437
B. subtilis 168 [2], first compound 6.248 µg/mL, partner 0.125 µg/mL | 0.304
S. aureus DSM 20231 [1], first compound 0.781 µg/mL, partner 0.125 µg/mL | 0.691
S. aureus DSM 20231 [1], first compound 0.781 µg/mL, partner 0.25 µg/mL | 0.581
S. aureus DSM 20231 [1], first compound 0.781 µg/mL, partner 0.5 µg/mL | 0.167
S. aureus DSM 20231 [1], first compound 1.562 µg/mL, partner 0.125 µg/mL | 0.598
S. aureus DSM 20231 [1], first compound 1.562 µg/mL, partner 0.25 µg/mL | 0.495
S. aureus DSM 20231 [1], first compound 1.562 µg/mL, partner 0.5 µg/mL | 0.0991
S. aureus DSM 20231 [1], first compound 3.124 µg/mL, partner 0.125 µg/mL | 0.459
S. aureus DSM 20231 [1], first compound 3.124 µg/mL, partner 0.25 µg/mL | 0.339
S. aureus DSM 20231 [1], first compound 3.124 µg/mL, partner 0.5 µg/mL | 0.0673
S. pneumoniae D39V [3], first compound 1.25 µg/mL, partner 0.105 µg/mL | 0.839
S. pneumoniae D39V [3], first compound 1.25 µg/mL, partner 0.21 µg/mL | 0.76
S. pneumoniae D39V [3], first compound 1.25 µg/mL, partner 0.4 µg/mL | 0.314
S. pneumoniae D39V [3], first compound 1.25 µg/mL, partner 0.42 µg/mL | 0.605
S. pneumoniae D39V [3], first compound 1.25 µg/mL, partner 0.8 µg/mL | 0.138
S. pneumoniae D39V [3], first compound 2.5 µg/mL, partner 0.105 µg/mL | 0.803
S. pneumoniae D39V [3], first compound 2.5 µg/mL, partner 0.2 µg/mL | 0.626
S. pneumoniae D39V [3], first compound 2.5 µg/mL, partner 0.21 µg/mL | 0.729
S. pneumoniae D39V [3], first compound 2.5 µg/mL, partner 0.4 µg/mL | 0.315
S. pneumoniae D39V [3], first compound 2.5 µg/mL, partner 0.42 µg/mL | 0.522
S. pneumoniae D39V [3], first compound 2.5 µg/mL, partner 0.8 µg/mL | 0.132
S. pneumoniae D39V [3], first compound 5 µg/mL, partner 0.105 µg/mL | 0.721
S. pneumoniae D39V [3], first compound 5 µg/mL, partner 0.2 µg/mL | 0.564
S. pneumoniae D39V [3], first compound 5 µg/mL, partner 0.21 µg/mL | 0.704
S. pneumoniae D39V [3], first compound 5 µg/mL, partner 0.4 µg/mL | 0.311
S. pneumoniae D39V [3], first compound 5 µg/mL, partner 0.42 µg/mL | 0.421
S. pneumoniae D39V [3], first compound 5 µg/mL, partner 0.8 µg/mL | 0.136

fitness, one replicate
Conditions | first compound 0.781 µg/mL | first compound 1.562 µg/mL | first compound 3.124 µg/mL | first compound 6.248 µg/mL
B. subtilis 168 [2], partner 0.0625 µg/mL | – | 0.726 | 0.606 | 0.368
S. aureus DSM 20231 [1], partner 1 µg/mL | 0.0309 | 0.0297 | 0.0078 | –

Conditions | Bliss interaction score
B. subtilis 168 [5] | 0.123
S. aureus DSM 20231 [4] | 0.0569
S. aureus Newman | -0.134
S. pneumoniae D39V [6] | 0.0981

CO/N=C(\C(=O)N[C@@H]1C(=O)N2C(C(=O)O)=C(COC(C)=O)CS[C@H]12)c1csc(N)n1 [Cefotaxime] + CC(=O)NC[C@H]1CN(c2ccc(N3CCOCC3)c(F)c2)C(=O)O1 [Linezolid]
Conditions | fitness
B. subtilis 168 [2], first compound 0.5 µg/mL, partner 0.125 µg/mL | 0.298
B. subtilis 168 [2], first compound 0.5 µg/mL, partner 0.25 µg/mL | 0.0555
B. subtilis 168 [2], first compound 0.5 µg/mL, partner 0.5 µg/mL | 0.0506
B. subtilis 168 [2], first compound 1 µg/mL, partner 0.125 µg/mL | 0.218
B. subtilis 168 [2], first compound 1 µg/mL, partner 0.25 µg/mL | 0.0513
B. subtilis 168 [2], first compound 1 µg/mL, partner 0.5 µg/mL | 0.0306
B. subtilis 168 [2], first compound 2 µg/mL, partner 0.125 µg/mL | 0.114
B. subtilis 168 [2], first compound 2 µg/mL, partner 0.25 µg/mL | 0.0572
B. subtilis 168 [2], first compound 2 µg/mL, partner 0.5 µg/mL | 0.0482
S. aureus DSM 20231 [1], first compound 0.039 µg/mL, partner 0.125 µg/mL | 0.737
S. aureus DSM 20231 [1], first compound 0.039 µg/mL, partner 0.25 µg/mL | 0.537
S. aureus DSM 20231 [1], first compound 0.039 µg/mL, partner 0.5 µg/mL | 0.194
S. aureus DSM 20231 [1], first compound 0.078 µg/mL, partner 0.125 µg/mL | 0.689
S. aureus DSM 20231 [1], first compound 0.078 µg/mL, partner 0.25 µg/mL | 0.57
S. aureus DSM 20231 [1], first compound 0.078 µg/mL, partner 0.5 µg/mL | 0.277
S. aureus DSM 20231 [1], first compound 0.156 µg/mL, partner 0.125 µg/mL | 0.745
S. aureus DSM 20231 [1], first compound 0.156 µg/mL, partner 0.25 µg/mL | 0.584
S. aureus DSM 20231 [1], first compound 0.156 µg/mL, partner 0.5 µg/mL | 0.297
S. pneumoniae D39V [3], first compound 0.0018 µg/mL, partner 0.105 µg/mL | 0.913
S. pneumoniae D39V [3], first compound 0.0018 µg/mL, partner 0.2 µg/mL | 0.642
S. pneumoniae D39V [3], first compound 0.0018 µg/mL, partner 0.21 µg/mL | 0.807
S. pneumoniae D39V [3], first compound 0.0018 µg/mL, partner 0.4 µg/mL | 0.633
S. pneumoniae D39V [3], first compound 0.0018 µg/mL, partner 0.42 µg/mL | 0.643
S. pneumoniae D39V [3], first compound 0.0018 µg/mL, partner 0.8 µg/mL | 0.238
S. pneumoniae D39V [3], first compound 0.0035 µg/mL, partner 0.105 µg/mL | 0.905
S. pneumoniae D39V [3], first compound 0.0035 µg/mL, partner 0.2 µg/mL | 0.604
S. pneumoniae D39V [3], first compound 0.0035 µg/mL, partner 0.21 µg/mL | 0.808
S. pneumoniae D39V [3], first compound 0.0035 µg/mL, partner 0.4 µg/mL | 0.615
S. pneumoniae D39V [3], first compound 0.0035 µg/mL, partner 0.42 µg/mL | 0.666
S. pneumoniae D39V [3], first compound 0.0035 µg/mL, partner 0.8 µg/mL | 0.217
S. pneumoniae D39V [3], first compound 0.007 µg/mL, partner 0.105 µg/mL | 0.797
S. pneumoniae D39V [3], first compound 0.007 µg/mL, partner 0.2 µg/mL | 0.597
S. pneumoniae D39V [3], first compound 0.007 µg/mL, partner 0.21 µg/mL | 0.693
S. pneumoniae D39V [3], first compound 0.007 µg/mL, partner 0.4 µg/mL | 0.58
S. pneumoniae D39V [3], first compound 0.007 µg/mL, partner 0.42 µg/mL | 0.445
S. pneumoniae D39V [3], first compound 0.007 µg/mL, partner 0.8 µg/mL | 0.173

one replicate
Conditions | fitness
B. subtilis 168 [2], first compound 0.00775 µg/mL, partner 0.125 µg/mL | 0.688
B. subtilis 168 [2], first compound 0.00775 µg/mL, partner 0.25 µg/mL | 0.141
B. subtilis 168 [2], first compound 0.00775 µg/mL, partner 0.5 µg/mL | 0.0663
B. subtilis 168 [2], first compound 0.0155 µg/mL, partner 0.125 µg/mL | 0.495
B. subtilis 168 [2], first compound 0.0155 µg/mL, partner 0.25 µg/mL | 0.0491
B. subtilis 168 [2], first compound 0.0155 µg/mL, partner 0.5 µg/mL | 0.0426
B. subtilis 168 [2], first compound 0.031 µg/mL, partner 0.125 µg/mL | 0.462
B. subtilis 168 [2], first compound 0.031 µg/mL, partner 0.25 µg/mL | 0.0621
B. subtilis 168 [2], first compound 0.031 µg/mL, partner 0.5 µg/mL | 0.0534
B. subtilis 168 [2], first compound 0.0625 µg/mL, partner 0.0625 µg/mL | 0.553
B. subtilis 168 [2], first compound 0.0625 µg/mL, partner 0.125 µg/mL | 0.327
B. subtilis 168 [2], first compound 0.0625 µg/mL, partner 0.25 µg/mL | 0.0561
B. subtilis 168 [2], first compound 0.125 µg/mL, partner 0.0625 µg/mL | 0.413
B. subtilis 168 [2], first compound 0.125 µg/mL, partner 0.125 µg/mL | 0.216
B. subtilis 168 [2], first compound 0.125 µg/mL, partner 0.25 µg/mL | 0.0505
B. subtilis 168 [2], first compound 0.25 µg/mL, partner 0.0625 µg/mL | 0.308
B. subtilis 168 [2], first compound 0.25 µg/mL, partner 0.125 µg/mL | 0.189
B. subtilis 168 [2], first compound 0.25 µg/mL, partner 0.25 µg/mL | 0.0533
S. aureus DSM 20231 [1], first compound 0.039 µg/mL, partner 1 µg/mL | 0.0567
S. aureus DSM 20231 [1], first compound 0.078 µg/mL, partner 1 µg/mL | 0.0664
S. aureus DSM 20231 [1], first compound 0.156 µg/mL, partner 1 µg/mL | 0.0626
S. aureus DSM 20231 [1], first compound 0.312 µg/mL, partner 0.125 µg/mL | 0.658
S. aureus DSM 20231 [1], first compound 0.312 µg/mL, partner 0.25 µg/mL | 0.545
S. aureus DSM 20231 [1], first compound 0.312 µg/mL, partner 0.5 µg/mL | 0.342

Conditions | Bliss interaction score
B. subtilis 168 [5] | 0.0544
S. aureus DSM 20231 [4] | 0.0531
S. aureus Newman | -0.0569
S. pneumoniae D39V [6] | 0.157
